Source: PMC4579270, “Identification and Characterization of an Irreversible Inhibitor of CDK2” (Chemistry & Biology, 2015)

Columns and labels:
Experiment in all cases: Dundee protein kinase screen
Format in all cases: biochemical
ABL = ABL (Homo sapiens, UniProt P00519); conditions: read-out: %Remaining activity at 1µM NU6300
Protocol: (§1) Prior to determining its cellular activity, we carried out a screen to assess its selectivity against a panel of 131 protein kinases under conditions that would not distinguish between a reversible or irreversible mode of action. […] These 13 kinases and 29 additional kinases, selected for their known sensitivity to other inhibitors within the purine series, were then tested in a modified screening format in which the assay was repeated following a 4-hr pre-incubation (Table S3B). […] However, conformational flexibility around the active site may promote such an interaction with a residue from another part of the structure ([Martin et al., 2012]).
(§2) Table S3, Related to Figure 4. NCL-0006300 protein kinase selectivity. (A) NU6300 was tested at a single concentration of 1µM against 131 protein kinases present in a Dundee protein kinase screen (Bain et al., 2007). Values given are % activity remaining and are the average of duplicate measurements: 0-25% (red), 26-50% (yellow), 51-80% (black) and above 81% (green). The kinase domain sequences (as defined by UniProt) of […]
(§3) have a lysine residue at a position close to CDK2 Lys88 or Lys89. However, in the structure of tyrosine-protein kinase BTK (PDB ID: 3GEN) the residue equivalent to CDK2 Asp86 is Cys481 and therefore there is the potential for a covalent adduct to be formed through this side chain. […]

Aurora B = Aurora B (Homo sapiens, UniProt Q96GD4); conditions: read-out: %Remaining activity at 1µM NU6300
Protocol: as §1, §2, §3

CHK2 = CHK2 (Homo sapiens, UniProt O96017); conditions: CHK2, 1µM; read-out: %Remaining activity at 1µM NU6300
Protocol: as §1, §2, §3

CLK2 = CLK2 (Homo sapiens, UniProt P49760); conditions: CLK2, 1µM; read-out: %Remaining activity at 1µM NU6300
Protocol: as §1, §2, §3

EF2K = EF2K (Homo sapiens, UniProt O00418); conditions: read-out: %Remaining activity at 1µM NU6300
Protocol: as §1, §2, §3

EIF2AK3 = EIF2AK3 (Homo sapiens, UniProt Q9NZJ5); conditions: EIF2AK3, 1µM; read-out: %Remaining activity at 1µM NU6300
Protocol: as §1, §2, §3

EPH-A2 = EPH-A2 (Homo sapiens, UniProt P29317); conditions: EPH-A2, 1µM; read-out: %Remaining activity at 1µM NU6300
Protocol: as §1, §2, §3

EPH-A4 = EPH-A4 (Homo sapiens, UniProt P54764); conditions: EPH-A4, 1µM; read-out: %Remaining activity at 1µM NU6300
Protocol: as §1, §2, §3

ERK2 = ERK2 (Homo sapiens, UniProt P28482); conditions: ERK2, 1µM; read-out: %Remaining activity at 1µM NU6300
Protocol: as §1, §2, §3

IGF-1R = IGF-1R (Homo sapiens, UniProt P08069); conditions: read-out: %Remaining activity at 1µM NU6300
Protocol: as §1, §2, §3

IKKe = IKKe (Homo sapiens, UniProt Q14164); conditions: read-out: %Remaining activity at 1µM NU6300
Protocol: as §1, §2, §3

JNK1 = JNK1 (Homo sapiens, UniProt P45983); conditions: JNK1, 1µM; read-out: %Remaining activity at 1µM NU6300
Protocol: as §1, §2, §3

JNK2 = JNK2 (Homo sapiens, UniProt P45984); conditions: JNK2, 1µM; read-out: %Remaining activity at 1µM NU6300
Protocol: as §1, §2, §3

Lck = Lck (Homo sapiens, UniProt P06239); conditions: read-out: %Remaining activity at 1µM NU6300
Protocol: as §1, §2, §3

MAPKAP-K2 = MAPKAP-K2 (Homo sapiens, UniProt P49137); conditions: MAPKAP-K2, 1µM; read-out: %Remaining activity at 1µM NU6300
Protocol: as §1, §2, §3

MAPKAP-K3 = MAPKAP-K3 (Homo sapiens, UniProt Q16644); conditions: MAPKAP-K3, 1µM; read-out: %Remaining activity at 1µM NU6300
Protocol: as §1, §2, §3

MARK4 = biological target: T1, MARK4 (Homo sapiens, UniProt Q96L34); conditions: MARK4, 1µM; read-out: %Remaining activity at 1µM NU6300
T1 sequence (Q96L34 1-752): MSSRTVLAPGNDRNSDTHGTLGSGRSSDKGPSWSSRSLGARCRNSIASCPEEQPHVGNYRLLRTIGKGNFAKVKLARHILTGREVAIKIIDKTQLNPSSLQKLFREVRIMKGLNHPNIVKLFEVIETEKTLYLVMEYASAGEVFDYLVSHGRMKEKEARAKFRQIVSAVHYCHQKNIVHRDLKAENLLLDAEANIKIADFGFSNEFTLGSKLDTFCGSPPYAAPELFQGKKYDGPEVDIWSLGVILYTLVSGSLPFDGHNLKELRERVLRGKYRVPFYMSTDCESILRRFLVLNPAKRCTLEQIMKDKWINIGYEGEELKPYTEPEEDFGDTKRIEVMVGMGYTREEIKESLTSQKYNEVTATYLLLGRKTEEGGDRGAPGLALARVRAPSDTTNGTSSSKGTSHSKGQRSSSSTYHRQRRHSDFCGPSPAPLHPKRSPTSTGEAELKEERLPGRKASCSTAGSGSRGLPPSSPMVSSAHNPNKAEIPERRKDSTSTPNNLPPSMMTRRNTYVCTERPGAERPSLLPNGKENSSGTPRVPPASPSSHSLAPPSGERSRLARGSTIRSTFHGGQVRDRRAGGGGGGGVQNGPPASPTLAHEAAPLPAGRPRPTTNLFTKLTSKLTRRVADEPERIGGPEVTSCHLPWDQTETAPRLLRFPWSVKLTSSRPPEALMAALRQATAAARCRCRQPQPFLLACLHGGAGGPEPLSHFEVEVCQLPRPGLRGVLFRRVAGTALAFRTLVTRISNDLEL
Protocol: as §1, §2, §3

MELK = MELK (Homo sapiens, UniProt Q14680); conditions: read-out: %Remaining activity at 1µM NU6300
Protocol: as §1, §2, §3

MKK1 = MKK1 (Homo sapiens, UniProt Q02750); conditions: MKK1, 1µM; read-out: %Remaining activity at 1µM NU6300
Protocol: as §1, §2, §3

Sequence of IKKe (Q14164 whole entry): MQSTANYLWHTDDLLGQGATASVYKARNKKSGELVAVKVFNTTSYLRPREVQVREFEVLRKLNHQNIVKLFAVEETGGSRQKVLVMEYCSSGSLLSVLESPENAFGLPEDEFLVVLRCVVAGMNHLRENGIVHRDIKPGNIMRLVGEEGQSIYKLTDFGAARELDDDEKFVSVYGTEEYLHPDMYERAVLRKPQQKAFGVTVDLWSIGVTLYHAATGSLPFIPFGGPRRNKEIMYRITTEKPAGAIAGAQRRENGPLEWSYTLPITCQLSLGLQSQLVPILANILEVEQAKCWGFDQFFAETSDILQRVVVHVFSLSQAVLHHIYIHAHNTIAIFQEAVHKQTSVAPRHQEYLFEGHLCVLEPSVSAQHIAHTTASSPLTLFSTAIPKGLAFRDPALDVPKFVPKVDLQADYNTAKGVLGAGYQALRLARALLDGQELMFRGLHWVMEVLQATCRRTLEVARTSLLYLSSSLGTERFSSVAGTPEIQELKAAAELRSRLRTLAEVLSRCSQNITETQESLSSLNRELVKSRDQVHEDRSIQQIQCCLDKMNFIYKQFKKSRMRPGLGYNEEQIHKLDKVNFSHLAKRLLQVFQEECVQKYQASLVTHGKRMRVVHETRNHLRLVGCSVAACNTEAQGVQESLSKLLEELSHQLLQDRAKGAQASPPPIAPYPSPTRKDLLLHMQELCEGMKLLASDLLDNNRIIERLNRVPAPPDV
Sequence of Aurora B (Q96GD4 whole entry): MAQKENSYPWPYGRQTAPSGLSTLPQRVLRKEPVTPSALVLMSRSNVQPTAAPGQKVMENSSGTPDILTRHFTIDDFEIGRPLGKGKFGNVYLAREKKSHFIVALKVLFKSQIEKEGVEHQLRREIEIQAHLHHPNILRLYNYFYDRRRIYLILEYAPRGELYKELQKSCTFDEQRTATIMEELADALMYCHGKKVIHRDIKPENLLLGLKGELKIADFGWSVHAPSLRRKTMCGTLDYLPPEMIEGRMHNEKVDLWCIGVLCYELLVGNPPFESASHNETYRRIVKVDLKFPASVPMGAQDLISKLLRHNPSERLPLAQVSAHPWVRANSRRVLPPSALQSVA
Sequence of IGF-1R (P08069 31-1367): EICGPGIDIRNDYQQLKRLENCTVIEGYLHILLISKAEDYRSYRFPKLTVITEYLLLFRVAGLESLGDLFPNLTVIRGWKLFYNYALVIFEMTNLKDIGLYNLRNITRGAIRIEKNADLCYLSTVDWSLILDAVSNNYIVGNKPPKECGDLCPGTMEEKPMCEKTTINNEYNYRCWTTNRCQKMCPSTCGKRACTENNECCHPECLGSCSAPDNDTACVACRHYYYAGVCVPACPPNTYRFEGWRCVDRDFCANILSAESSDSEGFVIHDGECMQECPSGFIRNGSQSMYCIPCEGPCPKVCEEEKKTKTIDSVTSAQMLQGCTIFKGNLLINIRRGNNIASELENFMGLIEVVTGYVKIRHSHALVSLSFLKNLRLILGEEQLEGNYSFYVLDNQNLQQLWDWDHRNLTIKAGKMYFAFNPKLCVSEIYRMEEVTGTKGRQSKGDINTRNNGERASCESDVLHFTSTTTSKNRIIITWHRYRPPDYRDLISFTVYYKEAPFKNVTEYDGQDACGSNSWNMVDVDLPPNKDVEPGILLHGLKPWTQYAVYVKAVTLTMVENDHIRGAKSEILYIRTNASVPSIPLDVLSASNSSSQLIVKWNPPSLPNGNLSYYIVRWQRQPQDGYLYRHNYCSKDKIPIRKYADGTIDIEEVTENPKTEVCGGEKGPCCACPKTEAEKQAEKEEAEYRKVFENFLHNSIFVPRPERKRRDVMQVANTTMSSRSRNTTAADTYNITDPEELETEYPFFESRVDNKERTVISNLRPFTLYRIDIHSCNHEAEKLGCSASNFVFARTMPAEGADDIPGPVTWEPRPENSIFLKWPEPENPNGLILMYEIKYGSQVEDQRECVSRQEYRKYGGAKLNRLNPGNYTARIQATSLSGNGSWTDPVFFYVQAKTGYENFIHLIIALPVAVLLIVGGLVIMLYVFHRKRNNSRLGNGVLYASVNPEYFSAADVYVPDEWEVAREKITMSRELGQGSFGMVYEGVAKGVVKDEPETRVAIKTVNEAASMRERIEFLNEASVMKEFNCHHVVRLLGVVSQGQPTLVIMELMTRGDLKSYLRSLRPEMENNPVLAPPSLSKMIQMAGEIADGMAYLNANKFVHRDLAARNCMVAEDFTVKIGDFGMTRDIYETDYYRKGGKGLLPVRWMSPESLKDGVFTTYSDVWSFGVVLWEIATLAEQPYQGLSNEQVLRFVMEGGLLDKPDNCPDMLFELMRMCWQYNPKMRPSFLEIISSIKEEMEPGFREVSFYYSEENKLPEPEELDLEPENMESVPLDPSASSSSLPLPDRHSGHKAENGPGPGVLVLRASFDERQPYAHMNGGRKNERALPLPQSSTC
Sequence of EIF2AK3 (Q9NZJ5 30-1116): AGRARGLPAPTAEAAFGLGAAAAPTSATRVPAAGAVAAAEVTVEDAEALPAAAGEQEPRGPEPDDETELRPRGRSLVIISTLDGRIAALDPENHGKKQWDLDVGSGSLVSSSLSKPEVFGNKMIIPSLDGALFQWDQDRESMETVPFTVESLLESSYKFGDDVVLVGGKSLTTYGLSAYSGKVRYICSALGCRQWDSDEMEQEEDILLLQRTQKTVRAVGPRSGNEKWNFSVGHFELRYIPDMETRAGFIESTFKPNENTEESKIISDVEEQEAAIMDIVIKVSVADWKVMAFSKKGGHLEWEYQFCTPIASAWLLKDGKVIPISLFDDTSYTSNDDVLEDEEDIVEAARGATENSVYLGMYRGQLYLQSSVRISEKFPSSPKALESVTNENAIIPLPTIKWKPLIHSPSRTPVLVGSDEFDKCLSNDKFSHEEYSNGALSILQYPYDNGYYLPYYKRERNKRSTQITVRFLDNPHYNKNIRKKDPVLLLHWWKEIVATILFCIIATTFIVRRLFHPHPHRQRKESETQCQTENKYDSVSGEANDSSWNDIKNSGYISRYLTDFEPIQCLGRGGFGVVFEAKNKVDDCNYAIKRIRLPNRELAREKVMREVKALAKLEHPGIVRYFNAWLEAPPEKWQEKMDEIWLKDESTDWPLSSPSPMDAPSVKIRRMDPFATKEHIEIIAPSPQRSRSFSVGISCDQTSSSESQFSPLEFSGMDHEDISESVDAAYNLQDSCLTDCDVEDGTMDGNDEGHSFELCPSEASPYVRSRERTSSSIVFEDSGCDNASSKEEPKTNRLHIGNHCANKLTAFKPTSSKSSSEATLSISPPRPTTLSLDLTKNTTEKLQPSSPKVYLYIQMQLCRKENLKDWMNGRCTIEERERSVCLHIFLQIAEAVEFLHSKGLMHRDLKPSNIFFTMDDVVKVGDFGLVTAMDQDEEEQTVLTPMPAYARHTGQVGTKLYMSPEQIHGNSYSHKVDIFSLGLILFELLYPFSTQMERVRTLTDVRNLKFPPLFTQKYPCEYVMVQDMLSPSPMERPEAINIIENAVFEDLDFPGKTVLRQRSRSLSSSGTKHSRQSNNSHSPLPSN
Sequence of CHK2 (O96017 whole entry): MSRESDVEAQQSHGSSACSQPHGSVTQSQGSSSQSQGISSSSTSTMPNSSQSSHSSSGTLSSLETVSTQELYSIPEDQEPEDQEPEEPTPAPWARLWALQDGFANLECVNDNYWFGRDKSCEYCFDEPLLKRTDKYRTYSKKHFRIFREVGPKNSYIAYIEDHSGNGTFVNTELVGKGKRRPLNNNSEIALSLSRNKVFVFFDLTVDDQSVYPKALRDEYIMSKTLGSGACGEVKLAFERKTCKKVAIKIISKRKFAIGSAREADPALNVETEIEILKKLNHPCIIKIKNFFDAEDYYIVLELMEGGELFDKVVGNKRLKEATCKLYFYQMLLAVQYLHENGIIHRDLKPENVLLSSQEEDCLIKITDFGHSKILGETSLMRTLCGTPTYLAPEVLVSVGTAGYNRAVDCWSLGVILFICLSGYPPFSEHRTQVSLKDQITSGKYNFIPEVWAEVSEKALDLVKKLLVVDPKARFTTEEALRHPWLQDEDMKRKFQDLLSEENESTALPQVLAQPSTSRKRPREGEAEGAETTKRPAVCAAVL
Sequence of MKK1 (Q02750 whole entry): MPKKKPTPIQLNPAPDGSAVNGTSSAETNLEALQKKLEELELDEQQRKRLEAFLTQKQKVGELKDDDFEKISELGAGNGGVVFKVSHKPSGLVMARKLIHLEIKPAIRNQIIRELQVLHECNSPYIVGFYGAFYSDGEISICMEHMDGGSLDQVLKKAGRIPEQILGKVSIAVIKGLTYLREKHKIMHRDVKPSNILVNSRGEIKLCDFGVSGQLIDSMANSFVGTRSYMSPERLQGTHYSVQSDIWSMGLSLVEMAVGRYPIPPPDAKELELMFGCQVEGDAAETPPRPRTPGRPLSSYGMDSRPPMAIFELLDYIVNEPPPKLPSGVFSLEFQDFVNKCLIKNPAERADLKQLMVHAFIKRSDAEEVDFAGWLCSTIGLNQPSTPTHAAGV
Sequence of MELK (Q14680 whole entry): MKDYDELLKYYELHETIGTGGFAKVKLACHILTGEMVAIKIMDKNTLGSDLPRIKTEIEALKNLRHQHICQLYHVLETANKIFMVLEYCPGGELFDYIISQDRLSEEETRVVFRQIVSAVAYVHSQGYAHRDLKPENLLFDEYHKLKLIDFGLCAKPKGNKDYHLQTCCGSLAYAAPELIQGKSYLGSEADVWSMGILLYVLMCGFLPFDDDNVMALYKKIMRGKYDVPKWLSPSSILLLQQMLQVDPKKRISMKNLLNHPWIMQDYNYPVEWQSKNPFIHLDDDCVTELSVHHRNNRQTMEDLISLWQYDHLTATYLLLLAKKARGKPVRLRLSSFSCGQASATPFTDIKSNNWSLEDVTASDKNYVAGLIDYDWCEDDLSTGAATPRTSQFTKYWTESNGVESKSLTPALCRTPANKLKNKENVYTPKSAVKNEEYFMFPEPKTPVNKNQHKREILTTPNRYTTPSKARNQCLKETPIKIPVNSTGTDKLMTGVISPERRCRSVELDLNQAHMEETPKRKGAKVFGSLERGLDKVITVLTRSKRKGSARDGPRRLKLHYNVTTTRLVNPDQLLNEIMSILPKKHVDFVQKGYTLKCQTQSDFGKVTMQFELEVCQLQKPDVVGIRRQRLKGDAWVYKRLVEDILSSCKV

C=CS(=O)(=O)c1ccc(Nc2nc(OCC3CCCCC3)c3nc[nH]c3n2)cc1 [NU6300, 6-(cyclohexylmethoxy)-N-(4-(vinylsulfonyl)phenyl)-9H-purin-2-amine]
remaining activity at 1 µM (ABL): 56% | remaining activity at 1 µM (Aurora B): 26% | remaining activity at 1 µM (CHK2): 39% | remaining activity at 1 µM (CLK2): 27% | remaining activity at 1 µM (EF2K): 69% | remaining activity at 1 µM (EIF2AK3): 83% | remaining activity at 1 µM (EPH-A2): 91% | remaining activity at 1 µM (EPH-A4): 69% | remaining activity at 1 µM (ERK2): 73% | remaining activity at 1 µM (IGF-1R): 79% | remaining activity at 1 µM (IKKe): 68% | remaining activity at 1 µM (JNK1): 60% | remaining activity at 1 µM (JNK2): 88% | remaining activity at 1 µM (Lck): 42% | remaining activity at 1 µM (MAPKAP-K2): 93% | remaining activity at 1 µM (MAPKAP-K3): 88% | remaining activity at 1 µM (MARK4): 37% | remaining activity at 1 µM (MELK): 55% | remaining activity at 1 µM (MKK1): 58%
